Where two headings read alike, the source gives them in different places.
What was measured:
A549 cancer cells = experiment: MTT cell viability assay, dark or photoactivated; assay type: cell-based, human; conditions: A549; for IC50: 4 h incubation; for IC50 / PI blue light (IC50,dark/IC50,light) / PI green light (IC50,dark/IC50,light) / PI red light (IC50,dark/IC50,light): MTT; for PI blue light (IC50,dark/IC50,light): blue light 460 nm; for PI blue light (IC50,dark/IC50,light) / PI green light (IC50,dark/IC50,light) / PI red light (IC50,dark/IC50,light): 24.1 J cm^–2; for PI green light (IC50,dark/IC50,light): green light 530 nm; for PI red light (IC50,dark/IC50,light): red light 655 nm; for PI/Dose: dose 24.1 J cm‐2, PI from MTT
Procedure: Cells were cultured in 96-well plates at a density of 3000 (A549), 2500 (HeLa), or 5000 (PC-3, 1BR.3.G, and MRC-5) cells per well in cell culture medium and allowed to attach for 24 h. Solutions of the complexes at different concentrations were prepared for cell treatments. In all cases, the solid compounds were weighed using an analytical balance (Mettler Toledo AX205DR) to ensure precise measurements. Subsequently, 5 mM solutions were prepared using DMSO. Solutions were then diluted in water to reach a concentration of 1 mM and then, aliquots were taken and diluted in culture medium to obtain solutions ranging from 0 to 50 μM. […] The cells were treated with these solutions in dark conditions or following the photoactivation protocol (see below). 48 h later the treatments were removed, and cells were washed with phosphate-buffered saline (PBS).
Initially, the effect of the complexes on the cell viability was determined by the 3-(4,5-dimethylthiazol-2-yl)-2,5-diphenyltetrazolium bromide (MTT) assay.[147] The cells were incubated for 2 h with 100 μL of culture medium together with 10 μL of MTT (Sigma-Aldrich) at 0.5 mg/mL. After discarding the medium, DMSO was added to each well to dissolve the purple formazan crystals. The absorbance of each well was determined on a Multiscan Plate Reader (Synergy 4, Biotek, Winooski) at a wavelength of 570 nm. Cell viability was also assessed using the CyQUANT Direct Cell Proliferation Assay (Thermo Fisher Scientific), following the manufacturer’s instructions. Briefly, after the treatments, the cells were washed with PBS, and an equal volume of culture medium and CyQUANT mix was added to each well. The plates were then incubated for 1 h at 37 °C. Subsequently, the fluorescence intensity was bottom read using a Multiscan Plate Reader (Synergy 4, Biotek, Winooski) with excitation and emission filters of 485 and 528 nm, respectively. In both assays, at least three replicates were measured for each treatment. The concentration that reduces the cell viability by 50% (IC50) was established using the Gen5 software (BioTek). Three independent experiments were carried out for each compound. […] The phototoxicity index (PI = IC50,dark/IC50,light) was determined.
To assess the photodynamic activity of the complexes, cells were incubated with the complexes for 4 h to enable their intracellular accumulation. The cells were then irradiated with light with a wavelength of 460 nm (blue), 530 nm (green), or 655 nm (red) for 1 h using a LED system (LuxLight) with an effective power of 6.7 mW cm^–2, which provides a total light dose of 24.1 J cm^–2. The LED system was positioned at 25 mm from the cell culture plates.

[1] = Photocatalytic NADH oxidation (UV-vis); assay type: biochemical; set-up: key: TON = ΔNADH concentration after 1 h / photocatalyst concentration; conditions: first hour, complex 2.5 μM, NADH 100 μM
Procedure: Fresh stock solutions of the complexes at 7.50 μM in H2O/MeOH mixture (97.5/2.5, v/v) and NADH at 300 μM in H2O/MeOH mixture (97.5/2.5, v/v) were prepared. In a quartz cell, 1 mL of complex solution, 1 mL of NADH solution, and 1 mL of solvent mixture were mixed to prepare a final solution with 2.50 μM complex and 100 μM NADH (complex/NADH rate = 1/40). The solutions were studied by recording UV–vis absorption spectra in dark conditions and under blue light irradiation (λexc = 470 nm, “Medusa” photoreactor) at ambient temperature and various time intervals for 8 h. In addition, a solution of NADH at 100 μM was studied under blue light irradiation to confirm its photostability. The photocatalytic rate of the photosensitizers was evaluated by monitoring its absorbance decrease at 340 nm, which correspond to NADH oxidation.
The turnover numbers (TONs) of complexes were calculated by measuring the absorption difference at 340 nm after 1 h of reaction. TON was calculated from the difference in NADH concentration after 1 h divided by the concentration of photocatalyst (eq 5), where b is the optical path length (1 cm). The concentration of NADH was obtained using the extinction coefficient ε340 = 5751 M^–1 cm^–1.[40],[148] [drawing 26] 5

[2] = 1O2 quantum yield determination with DPBF; conditions: acetonitrile; for 1O2 generation quantum yield (ϕΔ), DPBF: 470 nm blue light
Procedure: It was performed for complexes 1–8 in acetonitrile according to a relative procedure adapted from the literature[132]−[134] based on monitoring the oxidation of 1,3-diphenylisobenzofuran (DPBF, yellow) to 1,2-dibenzoylbenzene (colorless) photosensitized by the Ir(III) complexes. DPBF was used as an ^1O2 scavenger due to its fast reaction with this molecule. Fresh stock air-equilibrated solutions of photosensitizers (6.00 × 10^–6 M) and DPBF (1.50 × 10^–4 M) in acetonitrile were prepared. In a quartz cell, 1 mL of DPBF solution, 0.5 mL of complex solution, and 1.5 mL of acetonitrile were mixed to prepare a final solution with 5.00 × 10^–5 M DPBF and 1.00 × 10^–6 M complex. The final solutions were studied by recording UV–vis absorption spectra at room temperature in dark conditions (over a period of 6 min with time intervals of 2 min), under blue light irradiation (λexc = 470 nm, “Medusa” photoreactor) and under green light irradiation (λexc = 530 nm, “Medusa” photoreactor) for 5 s irradiation intervals during a total exposure period of 20 s. Absorption UV–vis spectra were recorded after every irradiation interval.
The consumption of DPBF probe was measured by monitoring its absorbance intensity decrease at 410 nm with irradiation time. ^1O2 generation quantum yield (ϕΔ) was calculated from eq 1 using Rose Bengal or [Ru(bpy)3]^2+ as reference for complexes with pbpz and pbpn ligands, respectively: [drawing 22] 1 where s and ref subscripts correspond to the complex and the reference, ϕΔ is the ^1O2 generation quantum yield (0.53 for Rose Bengal[135] and 0.56 for [Ru(bpy)3]Cl2[132] in degassed acetonitrile), S is the slope of the plots of the −ln(normalized absorbance) of DPBF at 410 nm vs the irradiation time, and F is the correction factor of absorption, which is given by F = 1–10^–O.D. (where O.D. is the optical density at 470 nm of solutions of complexes and references). The reproducibility of the results was confirmed by performing each experiment three times.
The stability of DPBF probe was studied in dark conditions and under light irradiation. In dark conditions and under green light irradiation the probe remains unaltered. However, under blue light irradiation, a photobleaching of DPBF was observed. Probe consumption was approximately 6.5% every 5 s. Therefore, a working interval of 20 s was chosen, where 75% of the probe remains stable. To calculate the ϕΔ, a correction factor was applied to the absorbance at 410 nm: a 6.5% of the previous value was added to each absorbance to counteract self-consumption of the probe (i.e., to the absorbance at 10 s, a 6.5% of the absorbance at 5 s was added).

[3] = blue light 460 nm 1 h (24.1 J cm^–2), 48 h, read-out: IC50 blue light
[4] = green light 530 nm 1 h (24.1 J cm^–2), 48 h, read-out: IC50 green light
[5] = kept in the dark, viability after 48 h, read-out: IC50 dark
[6] = red light 655 nm 1 h (24.1 J cm^–2), 48 h, read-out: IC50 red light

SMILES | IC50 (A549 cancer cells; [3]) [nM] | IC50 (A549 cancer cells; [4]) [nM] | IC50 (A549 cancer cells; [5]) [nM] | PI blue light (IC50,dark/IC50,light) (A549 cancer cells) | PI green light (IC50,dark/IC50,light) (A549 cancer cells) | TON1h (NADH oxidation) ([1]; 470 nm blue light) | TON1h (NADH oxidation) ([1]; dark) | 1O2 generation quantum yield (ϕΔ), DPBF [2] | IC50 (A549 cancer cells; [6]) [nM] | PI red light (IC50,dark/IC50,light) (A549 cancer cells) | Slope (S) of ‐ln(normalized Abs) vs time, photooxidation of DPBF ([2]; λir = 470 nm) | Slope (S) of ‐ln(normalized Abs) vs time, photooxidation of DPBF ([2]; λir = 530 nm) | PI/Dose (A549 cancer cells; 530 nm) | PI/Dose (A549 cancer cells; 460 nm) | PI/Dose (A549 cancer cells; 655 nm)
Cc1c(C)c(C)[c-](C)c1C.F[B-](F)(F)F.c1ccc(Cn2cc[n+]([Ir]3[c]4cccc5c6nc7ccccc7nc6c6ccc[n+]3c6c45)c2)cc1 [complex 7, [(η^5-C5Me5)Ir(bzIm)(pbpz)]BF4] | 650 ± 200 | 470 ± 40 | 770 ± 200 | 1.2 | 1.7 | 4.54 | 0.12 | 0.0204 |  |  |  |  |  |  | 
Cc1c(C)c(C)[c-](C)c1C.[Cl][Ir]1[c]2cccc3c4nc5ccccc5nc4c4ccc[n+]1c4c23 [complex 1, [(η^5-C5Me5)IrCl(pbpz)]] | 2900 ± 400 | 5800 ± 100 | 8000 ± 1000 |  | 1.4 | 12.47 | 0.16 | 0.0780 |  |  |  |  |  |  | 
Cc1c(C)c(C)[c-](C)c1C.F[B-](F)(F)F.c1ccc(Cn2cc[n+]([Ir]3[c]4cccc5c6nc7cc8ccccc8cc7nc6c6ccc[n+]3c6c45)c2)cc1 [complex 8, [(η^5-C5Me5)Ir(bzIm)(pbpn)]BF4] | 0.2 ± 0.1 | 2.1 ± 0.4 | 150 ± 50 |  | 71 | 5.75 | 0.14 | 0.99 | 30 ± 20 | 5 | 0.0771 | 0.0061 |  |  | 
Cc1c(C)c(C)[c-](C)c1C.F[B-](F)(F)F.c1ccc2cc3nc4c5ccc[n+]6c5c5[c](cccc5c4nc3cc2c1)[Ir]6[n+]1cc[nH]c1 [complex 4, [(η^5-C5Me5)Ir(Im)(pbpn)]BF4] | 3.2 ± 2 | 10 ± 3 | 2900 ± 1000 |  | 294 | 9.71 | 0.31 | 0.9894 | 120 ± 50 | 25 | 0.0890 | 0.0058 | 12.2 |  | 
Cc1c(C)c(C)[c-](C)c1C.F[B-](F)(F)F.c1ccc2cc3nc4c5ccc[n+]6c5c5[c](cccc5c4nc3cc2c1)[Ir]6[n+]1ccn(CCN2CCCCC2)c1 [complex 6, [(η^5-C5Me5) Ir(Imepip)(pbpn)]BF4] | 1.5 ± 0.5 | 11 ± 4 | 2000 ± 100 |  | 179 | 7.79 | 0.94 | 0.8118 | 32 ± 10 | 63 | 0.0657 | 0.0069 |  | 54.6 | 2.6
Cc1c(C)c(C)[c-](C)c1C.F[B-](F)(F)F.c1ccc2nc3c4ccc[n+]5c4c4[c](cccc4c3nc2c1)[Ir]5[n+]1ccn(CCN2CCCCC2)c1 [complex 5, [(η^5-C5Me5)Ir(Imepip)(pbpz)]BF4] | 390 ± 100 | 520 ± 20 | 830 ± 20 | 2.1 | 1.6 | 2.36 | 0.37 | 0.026 |  |  |  |  |  |  | 
